Data on ten molecules can be found in US6512112B2, “Aminoaryl oxazolidinone N-oxides” (Pharmacia & Upjohn Company, priority 1995, dated 2003).

Data set [1] is described as follows: Reduction of the N-oxide in vivo following intravenous and oral administration to rats. Also noted: species or system male Sprague-Dawley rats. The settings on record: rat. The method, then:
The rate and extent of reduction of the N-oxide of Example 2 was investigated in vivo using the following procedures: Six male Sprague-Dawley rats are used for this study. Three rats are given a single intravenous 10 mg/kg dose of the N-oxide and three rats are given a single oral 25 mg/kg dose of the N-oxide. Blood is collected pre-dose and up to 24 h post dose. The plasma is analyzed for the N-oxide and the parent amine by LC-MS.

The test system of another data set is S. Pneumoniae UC ® 9912. Description: Minimum inhibitory concentration (MIC) by agar dilution. The class given is cell-based. As to conditions: Streptococcus pneumoniae, UC9912. How it is done:
(§1) The oxazolidinone compounds of the present invention have useful activity against a variety of microorganisms. The in vitro activity of compounds of the present invention are assessed by standard testing procedures such as the determination of minimum inhibitory concentration (MIC) by agar dilution as described in “Methods for Dilution Antimicrobial Susceptiblity Tests for Bacteria That Grow Aerobically” (MFT) published January 1993 by the National Committee for Clinical Laboratory Standards (NCCLS), 771 East Lancaster Avenue, Villanova, Pa. 19084, USA. The activity of selected compounds of the present invention against Staphylococcus aureus and Streptococcus pneumoniae are shown in Table 2.
(In agar dilution, organisms are placed on agar that contains the substance at set levels.)

A further data set deals with S. Aureus UC ® 9213. The description is as above. The class given is cell-based. The settings on record: Staphylococcus aureus, UC9213. The method, then: as §1
Data set [2] can be described thus: Solubility in pH 7, 50 mM phosphate buffer. It is filed as physicochemical. As to conditions: thermodynamic from solid. How it is done:
The samples are capped and stirred via magnetic stir bars for 24 to 48 hours at room temperature. Samples are filter centrifuged (800×g) for 5-10 minutes through Millipore Ultrafree-MC 0.22 Micron filter units. The supernate is analyzed by either UV or HPLC to quantitate the drug concentration.

Setting [3] is: aqueous buffer, pH 7, 50 mM phosphate buffer or other vehicle, room temperature, 24 to 48 hours, read-out: N-Oxide Solubility.
The mark [4] stands for this setting: aqueous buffer, parent amine of the example's N-oxide, pH 7, 50 mM phosphate buffer or other vehicle, room temperature, 24 to 48 hours, read-out: Parent Amine Solubility.

Molecules are shown by their SMILES. Converted amounts (≈) assume the structure as drawn. Like-named read-outs stand apart in the source and are kept apart here.

For orientation: melting point means the temperature of the solid-liquid transition. The MIC is the smallest concentration in the dilution series that meets the test's criterion for growth inhibition. A low value points to greater potency. Usually solubility stands for how much of the substance goes into solution per volume.

`CC(=O)NC[C@H]1CN(c2ccc(N3CCOCC3)c(F)c2)C(=O)O1` [parent amine of Example 2, (S )-N-[[3-[3 -Fluoro-4-(4-morpholinyl)phenyl]-2-oxo-5-oxazolidinyl]methyl]-acetamide, reference compound]: the “time parent amine detected in plasma post dosing” value in data set [1] (after dosing of the N-oxide, lower limit of quantitation ≈0.01 μg/mL) was “up to 10 h”.

In the case of `CC(=O)NC[C@H]1CN(c2ccc([N+]3([O-])CCN(C(=O)CO)CC3)c(F)c2)C(=O)O1` (hydrate or solvate) [Example 1, (S)-N-[[3-[3-fluoro4-[4-(hydroxyacetyl)-1-piperazinyl]phenyl]-2-oxo-5-oxazolidinyl]-methyl]acetamide N-oxide], the melting point fell in the range of 158 to 160 °C.

With `CC(=O)NC[C@H]1CN(c2ccc([N+]3([O-])CCOCC3)c(F)c2)C(=O)O1` [Example 2], the melting point was 202 to 204 °C. The “N-oxide found in plasma” value in data set [1] (10 mg/kg intravenous N-oxide, first time point immediately post injection, LC-MS) is recorded as “Only traces”. Also, the “Cmax, Tmax and AUC values for the parent amine compared with direct administration of the parent amine” value in data set [1] (N-oxide 10 mg/kg intravenous and 25 mg/kg oral, same doses and protocol) was “very similar”. The “conversion of the N-oxide to the parent amine in vivo” value in data set [1] (intravenous and oral dosing) was “rapid and essentially quantitative”. Further, it took 1 µg/mL (≈ 0.00283 mM) to inhibit growth in the data set with S. Pneumoniae UC ® 9912 (MIC). This molecule also had an MIC in the data set on S. Aureus UC ® 9213 of 4 µg/mL (≈ 0.0113 mM). In addition, in data set [2] (setting [3]), the solubility turned out to be 534000 µg/mL (≈ 1510 mM). For the same molecule, the solubility in data set [2] (water, value stated, read-out: water solubility) is 409000 µg/mL (≈ 1160 mM).

In the case of `CC(=O)NC[C@H]1CN(c2ccc(N3CCN(C(=O)CO)CC3)c(F)c2)C(=O)O1` [parent amine of Example 1, (S)-N-[[3-[3-Fluoro-4-[4-(hydroxyacetyl)-1-piperazinyl]-phenyl]-2-oxo-5-oxazolidinyl]methyl]-acetamide, reference compound], in data set [2] (setting [4]), the solubility was determined as 4200 µg/mL (≈ 10.6 mM).

Turning to `CC(=O)[NH+]([O-])C[C@@H]1CN(c2ccc(N3CCN(S(=O)(=O)CC#N)CC3)c(F)c2)C(=O)O1` (stereo partly drawn) [Example 5, (S)-N-[[3-[4-[4-[(cyanomethyl)sulfonyl]-1-piperazinyl]3-fluorophenyl]-2-oxo-5-oxazolidinyl]methyl]acetamide N-oxide], the melting point was 153 to 156 °C. In the data set on S. Pneumoniae UC ® 9912, this molecule came in with an MIC of 0.5 µg/mL (≈ 0.0011 mM). Also, the MIC in the data set on S. Aureus UC ® 9213 stood at 4 µg/mL (≈ 0.00878 mM).

Consider `CC(=O)NC[C@H]1CN(c2ccc([N+]3([O-])CCN(C(=O)CO)CC3)c(F)c2)C(=O)O1` [Example 1, (S)-N-[[3-[3-fluoro4-[4-(hydroxyacetyl)-1-piperazinyl]phenyl]-2-oxo-5-oxazolidinyl]-methyl]acetamide N-oxide], for which the minimal inhibitory concentration (MIC) is 0.5 µg/mL (≈ 0.00122 mM) in the data set on S. Pneumoniae UC ® 9912 and 2 µg/mL (≈ 0.00487 mM) against S. Aureus UC ® 9213. Besides, the solubility in data set [2] (setting [3]) was 348000 µg/mL (≈ 848 mM).

On to `CC(=O)NC[C@H]1CN(c2ccc(N3CCN(S(=O)(=O)c4ccccc4C#N)CC3)c(F)c2)C(=O)O1` [parent amine of Example 6, (S)-N-[[3-[4-[4-[(2-cyanophenyl)sulfonyl]-1-piperazinyl]-3-fluorophenyl]-2-oxo-5-oxazolidinyl]methyl]acetamide, reference compound], for which, in data set [2] (setting [4]), the solubility was 31 µg/mL (≈ 0.0618 mM).

On to `CC(=O)NC[C@H]1CN(c2ccc([N+]3([O-])CCN(S(=O)(=O)c4ccccc4C#N)CC3)c(F)c2)C(=O)O1` [Example 6, (S)-N-[[3-[4-[4-[(2-cyanophenyl)sulfonyl]-1-piperazinyl]-3-fluorophenyl]-2-oxo-5-oxazolidinyl]methyl]acetamide N-oxide], for which the melting point was 190 to 192 °C. In addition, inhibition of growth with S. Pneumoniae UC ® 9912 (MIC) required 0.25 µg/mL (≈ 0.000483 mM). The molecule also displayed an MIC against S. Aureus UC ® 9213 of 2 µg/mL (≈ 0.00386 mM). Also, in data set [2] (setting [3]), the solubility was 1100 µg/mL (≈ 2.13 mM).

Turning to `CC(=O)NC[C@H]1CN(c2cc(F)c([N+]3([O-])CCN(C(=O)CO)CC3)c(F)c2)C(=O)O1` [Example 4, (S)-N-[[3-[3,5-difluoro-4-[4-(hydroxyacetyl)-1-piperazinyl]phenyl]-2-oxo-5-oxazolidinyl]-methyl]acetamide N-oxide], the melting point was 100 to 105 °C. Also, in the data set with S. Pneumoniae UC ® 9912, 0.5 µg/mL (≈ 0.00117 mM) was the least that counted as inhibitory (MIC). This molecule also came in with an MIC against S. Aureus UC ® 9213 of 2 µg/mL (≈ 0.00467 mM).

For the molecule `CC(=O)NC[C@H]1CN(c2ccc(N3CCN(S(C)(=O)=O)CC3)c(F)c2)C(=O)O1` [parent amine of Example 3, (S)-N-[[3-[3-fluoro-4-[4-(methylsulfonyl)-1-piperazinyl]phenyl]-2-oxo-5-oxazolidinyl]-methyl]acetamide, reference compound], the solubility in data set [2] (setting [4]) was 280 µg/mL (≈ 0.676 mM).
